From PubChem BioAssay (NCI)
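Test compounds were applied to cells in 96-well plates for 48 hours at 5 doses. TGI is the concentration that stops growth completely.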

Experiments:
Assay in all cases: DTP human tumour cell line panel, 48 h
UACC-257 melanoma = tested on: UACC-257 melanoma
UACC-62 melanoma = tested on: UACC-62 melanoma
RPMI-8226 leukemia = tested on: RPMI-8226 leukemia
ACHN renal = tested on: ACHN renal
HCT-15 colon = tested on: HCT-15 colon
UO-31 renal = tested on: UO-31 renal
SF-268 CNS = tested on: SF-268 CNS
U251 CNS = tested on: U251 CNS
DMS 114 small cell lung = tested on: DMS 114 small cell lung
HOP-18 NSCLC = tested on: HOP-18 NSCLC
SK-MEL-28 melanoma = tested on: SK-MEL-28 melanoma
OVCAR-8 ovarian = tested on: OVCAR-8 ovarian
DLD-1 colon = tested on: DLD-1 colon
SNB-19 CNS = tested on: SNB-19 CNS
HL-60(TB) leukemia = tested on: HL-60(TB) leukemia
HOP-92 NSCLC = tested on: HOP-92 NSCLC
HOP-62 NSCLC = tested on: HOP-62 NSCLC
NCI-H460 lung = tested on: NCI-H460 lung
LOX IMVI melanoma = tested on: LOX IMVI melanoma
CAKI-1 renal = tested on: CAKI-1 renal
OVCAR-3 ovarian = tested on: OVCAR-3 ovarian
SNB-75 CNS = tested on: SNB-75 CNS
NCI-H522 lung = tested on: NCI-H522 lung
EKVX NSCLC = tested on: EKVX NSCLC
IGROV1 ovarian = tested on: IGROV1 ovarian
KM12 colon = tested on: KM12 colon
LXFL 529 NSCLC = tested on: LXFL 529 NSCLC
SW-620 colon = tested on: SW-620 colon
TK-10 renal = tested on: TK-10 renal
K-562 leukemia = tested on: K-562 leukemia
SK-MEL-2 melanoma = tested on: SK-MEL-2 melanoma
SNB-78 CNS = tested on: SNB-78 CNS
SK-MEL-5 melanoma = tested on: SK-MEL-5 melanoma
M19-MEL melanoma = tested on: M19-MEL melanoma
SF-539 CNS = tested on: SF-539 CNS
MOLT-4 leukemia = tested on: MOLT-4 leukemia
HT29 colon = tested on: HT29 colon
HCT-116 colon = tested on: HCT-116 colon
DMS 273 small cell lung = tested on: DMS 273 small cell lung
MALME-3M melanoma = tested on: MALME-3M melanoma
HCC-2998 colon = tested on: HCC-2998 colon
SF-295 CNS = tested on: SF-295 CNS
M14 melanoma = tested on: M14 melanoma
A498 renal = tested on: A498 renal
SR leukemia = tested on: SR leukemia
SK-OV-3 ovarian = tested on: SK-OV-3 ovarian
KM20L2 colon = tested on: KM20L2 colon
COLO 205 colon = tested on: COLO 205 colon
OVCAR-5 ovarian = tested on: OVCAR-5 ovarian
OVCAR-4 ovarian = tested on: OVCAR-4 ovarian
NCI-H226 lung = tested on: NCI-H226 lung
CCRF-CEM leukemia = tested on: CCRF-CEM leukemia
RXF-631 renal = tested on: RXF-631 renal
A549 NSCLC = tested on: A549 NSCLC
RXF 393 renal = tested on: RXF 393 renal
786-0 renal = tested on: 786-0 renal
NCI-H23 lung = tested on: NCI-H23 lung
SN12C renal = tested on: SN12C renal

O=C(NO)C(=O)Nc1cc(Cl)ccc1Cl
TGI (UACC-257 melanoma): > 100 µM | TGI (UACC-62 melanoma): > 100 µM | TGI (RPMI-8226 leukemia): > 100 µM | TGI (ACHN renal): > 100 µM | TGI (HCT-15 colon): > 100 µM | TGI (UO-31 renal): 51 µM | TGI (SF-268 CNS): > 100 µM | TGI (U251 CNS): > 100 µM | TGI (DMS 114 small cell lung): > 100 µM | TGI (HOP-18 NSCLC): > 100 µM | TGI (SK-MEL-28 melanoma): > 100 µM | TGI (OVCAR-8 ovarian): > 100 µM | TGI (DLD-1 colon): > 100 µM | TGI (SNB-19 CNS): > 100 µM | TGI (HL-60(TB) leukemia): > 100 µM | TGI (HOP-92 NSCLC): > 100 µM | TGI (HOP-62 NSCLC): > 100 µM | TGI (NCI-H460 lung): > 100 µM | TGI (LOX IMVI melanoma): > 100 µM | TGI (CAKI-1 renal): > 100 µM | TGI (OVCAR-3 ovarian): > 100 µM | TGI (SNB-75 CNS): > 100 µM | TGI (NCI-H522 lung): 49.1 µM | TGI (EKVX NSCLC): > 100 µM | TGI (IGROV1 ovarian): 55.3 µM | TGI (KM12 colon): > 100 µM | TGI (LXFL 529 NSCLC): > 100 µM | TGI (SW-620 colon): > 100 µM | TGI (TK-10 renal): > 100 µM | TGI (K-562 leukemia): > 100 µM | TGI (SK-MEL-2 melanoma): > 100 µM | TGI (SNB-78 CNS): > 100 µM | TGI (SK-MEL-5 melanoma): > 100 µM | TGI (M19-MEL melanoma): > 100 µM | TGI (SF-539 CNS): > 100 µM | TGI (MOLT-4 leukemia): > 100 µM | TGI (HT29 colon): > 100 µM | TGI (HCT-116 colon): > 100 µM | TGI (DMS 273 small cell lung): > 100 µM | TGI (MALME-3M melanoma): > 100 µM | TGI (HCC-2998 colon): > 100 µM | TGI (SF-295 CNS): > 100 µM | TGI (M14 melanoma): > 100 µM | TGI (A498 renal): > 100 µM | TGI (SR leukemia): > 100 µM | TGI (SK-OV-3 ovarian): > 100 µM | TGI (KM20L2 colon): > 100 µM | TGI (COLO 205 colon): > 100 µM | TGI (OVCAR-5 ovarian): > 100 µM | TGI (OVCAR-4 ovarian): > 100 µM | TGI (NCI-H226 lung): > 100 µM | TGI (CCRF-CEM leukemia): > 100 µM | TGI (RXF-631 renal): > 100 µM | TGI (A549 NSCLC): > 100 µM | TGI (RXF 393 renal): > 100 µM | TGI (786-0 renal): > 100 µM | TGI (NCI-H23 lung): > 100 µM | TGI (SN12C renal): > 100 µM

CCN(C(=N)C#N)c1ccccc1
TGI (UACC-257 melanoma): > 100 µM | TGI (UACC-62 melanoma): > 100 µM | TGI (RPMI-8226 leukemia): > 100 µM | TGI (ACHN renal): > 100 µM | TGI (HCT-15 colon): > 69.2 µM | TGI (UO-31 renal): > 100 µM | TGI (SF-268 CNS): > 100 µM | TGI (U251 CNS): > 100 µM | TGI (DMS 114 small cell lung): > 88.2 µM | TGI (HOP-18 NSCLC): > 100 µM | TGI (SK-MEL-28 melanoma): > 100 µM | TGI (OVCAR-8 ovarian): > 100 µM | TGI (DLD-1 colon): > 65.6 µM | TGI (SNB-19 CNS): > 100 µM | TGI (HL-60(TB) leukemia): > 70.2 µM | TGI (HOP-92 NSCLC): > 100 µM | TGI (HOP-62 NSCLC): > 100 µM | TGI (NCI-H460 lung): > 100 µM | TGI (LOX IMVI melanoma): > 100 µM | TGI (CAKI-1 renal): > 100 µM | TGI (OVCAR-3 ovarian): > 100 µM | TGI (SNB-75 CNS): > 100 µM | TGI (NCI-H522 lung): > 100 µM | TGI (EKVX NSCLC): > 100 µM | TGI (IGROV1 ovarian): > 100 µM | TGI (KM12 colon): > 100 µM | TGI (LXFL 529 NSCLC): > 100 µM | TGI (SW-620 colon): > 49.8 µM | TGI (TK-10 renal): > 100 µM | TGI (K-562 leukemia): > 100 µM | TGI (SK-MEL-2 melanoma): > 100 µM | TGI (SK-MEL-5 melanoma): > 100 µM | TGI (M19-MEL melanoma): > 95.4 µM | TGI (SF-539 CNS): 27.6 µM | TGI (MOLT-4 leukemia): > 100 µM | TGI (HT29 colon): > 100 µM | TGI (HCT-116 colon): > 100 µM | TGI (DMS 273 small cell lung): > 58.3 µM | TGI (MALME-3M melanoma): > 100 µM | TGI (HCC-2998 colon): > 100 µM | TGI (SF-295 CNS): > 100 µM | TGI (M14 melanoma): > 100 µM | TGI (A498 renal): > 100 µM | TGI (SR leukemia): > 100 µM | TGI (SK-OV-3 ovarian): > 100 µM | TGI (KM20L2 colon): > 100 µM | TGI (COLO 205 colon): > 100 µM | TGI (OVCAR-5 ovarian): > 100 µM | TGI (OVCAR-4 ovarian): > 100 µM | TGI (NCI-H226 lung): > 100 µM | TGI (CCRF-CEM leukemia): > 85.1 µM | TGI (RXF-631 renal): > 100 µM | TGI (A549 NSCLC): > 100 µM | TGI (RXF 393 renal): > 100 µM | TGI (786-0 renal): > 60.3 µM | TGI (NCI-H23 lung): > 100 µM | TGI (SN12C renal): > 100 µM

O=C1[C@@H]2C(c3cccc([N+](=O)[O-])c3)=NO[C@@H]2C(=O)N1c1ccc(Cc2ccc(N3C(=O)[C@H]4C(c5cccc([N+](=O)[O-])c5)=NO[C@H]4C3=O)cc2)cc1
TGI (UACC-257 melanoma): > 100 µM | TGI (UACC-62 melanoma): > 100 µM | TGI (RPMI-8226 leukemia): > 100 µM | TGI (ACHN renal): > 100 µM | TGI (HCT-15 colon): > 100 µM | TGI (UO-31 renal): > 100 µM | TGI (DMS 114 small cell lung): > 100 µM | TGI (HOP-18 NSCLC): > 100 µM | TGI (SK-MEL-28 melanoma): > 100 µM | TGI (DLD-1 colon): > 100 µM | TGI (HOP-92 NSCLC): > 100 µM | TGI (HOP-62 NSCLC): > 100 µM | TGI (NCI-H460 lung): > 100 µM | TGI (CAKI-1 renal): > 100 µM | TGI (OVCAR-3 ovarian): > 100 µM | TGI (SNB-75 CNS): > 100 µM | TGI (NCI-H522 lung): > 100 µM | TGI (IGROV1 ovarian): > 100 µM | TGI (LXFL 529 NSCLC): > 100 µM | TGI (SW-620 colon): > 100 µM | TGI (TK-10 renal): > 100 µM | TGI (K-562 leukemia): > 100 µM | TGI (SK-MEL-2 melanoma): > 100 µM | TGI (SNB-78 CNS): > 100 µM | TGI (M19-MEL melanoma): > 100 µM | TGI (SF-539 CNS): > 100 µM | TGI (MOLT-4 leukemia): > 100 µM | TGI (HT29 colon): > 100 µM | TGI (HCT-116 colon): > 100 µM | TGI (DMS 273 small cell lung): > 100 µM | TGI (MALME-3M melanoma): > 100 µM | TGI (M14 melanoma): > 100 µM | TGI (SR leukemia): > 100 µM | TGI (KM20L2 colon): > 100 µM | TGI (COLO 205 colon): > 100 µM | TGI (OVCAR-5 ovarian): > 100 µM | TGI (OVCAR-4 ovarian): > 100 µM | TGI (CCRF-CEM leukemia): > 100 µM | TGI (RXF-631 renal): > 100 µM | TGI (RXF 393 renal): > 100 µM | TGI (786-0 renal): > 100 µM | TGI (SN12C renal): > 100 µM
